Laboratory results: patent US9949479B2 (priority 2015, dated 2018)
Values after ≈ are worked out from the molar mass of the structure shown.

Test system: Fusarium graminearum
Assay: microbe, parasite or virus in culture
Assay type: cell-based

CC1(C)CCC(Cc2ccc(Cl)cc2)C1(O)Cn1cncn1 (stereo not drawn) [Metconazole]
ED50 (F.g carbendazim-resistant strains): 0.113 µg/mL (≈ 0.353 µM)
ED50 (F.g phenamacril-resistant strains): 0.115 µg/mL (≈ 0.36 µM)
inhibition at 0.125 µg/mL (Fusarium graminearum, read-out: inhibitory effect on hyphal growth): > 50%
